Molecular target: HIF PHD2 (Homo sapiens, UniProt Q9GZT9)
Assay: PHD2 inhibition assay (TR-FRET, VCB-Eu detection of hydroxylated P564-HIF1α peptide)
Type: biochemical
Conditions: 2 nM PHD2, 100 nM P564-HIF1α peptide, 0.25 μM 2-oxoglutarate, 100 μM FeCl2, 2 mM ascorbic acid, pH 6
Experimental: Inhibition of HIF PHD2 activity was quantified utilizing the TR-FRET technology. HIF PHD2 catalyzes a hydroxyl modification on the proline residue of the P564-HIF1α peptide substrate (Biotin-[…] (SEQ ID NO: 7)) resulting in recognition and binding of the europylated Von Hippel-Lindau protein (pVHL), elongin B and elongin C heterotrimeric (VCB-Eu) complex.
The PHD2 inhibition assay was executed by addition of freshly dissolved FeCl2 to 178.57 μM (100 μM final concentration) in PHD2 Reaction Buffer containing 30 mM MES, pH 6, 10 mM NaCl, 0.25% Brij-35, 0.01% BSA, and 1% DMSO. 28 μL of the iron solution and 2 μL of inhibitor compounds serially diluted in 100% DMSO (5% DMSO final) were added to black polypropylene 96-well microtiter plates. To that, 10 μL of 10 nM PHD2 (2 nM final) was added to all wells of the plate except for the 8 wells of column 12 (LO control), and allowed to incubate at room temperature on the shaker for one hour. Column 6 was the HI control containing PHD2 enzyme and 5% DMSO vehicle, but no inhibitor compound. To initiate the PHD2 enzymatic reaction, 10 μL of a solution containing 500 nM P564-HIF1α peptide (100 nM final), 10 mM ascorbic acid (2 mM final), and 1.25 μM 2-oxoglutarate (α-ketoglutarate; 0.25 μM final) in PHD2 Reaction Buffer was added to all wells of the plate and allowed to incubate on the shaker at room temperature for one hour.
The reaction was terminated by addition of 25 μL TR-FRET Buffer (50 mM TRIS-HCl, pH 9, 100 mM NaCl, 0.05% BSA, and 0.5% Tween-20) containing 150 mM succinate (product inhibitor; 50 mM final), 75 nM streptavidin-APC (25 nM final), and 7.5 nM VCB-Eu (2.5 nM final). The TR-FRET detection reagents were placed on a shaker for 1 hour to reach binding equilibrium before reading on the Discovery platform (PerkinElmer). Europium is excited at 315 nm and phosphoresces at 615 nm with a large Stoke's shift. APC, in turn, emits at 655 nm upon excitation at 615 nm. The TR-FRET signal is measured as the ratio of the APC 655 nm signal divided by the internal europium reference 615 nm emission signal.
The POC (percentage of control) was determined by comparing the signal from hydroxylated peptide substrate in the enzyme reaction containing inhibitor compound with that from PHD2 enzyme with DMSO vehicle alone (HI control), and no enzyme (LO control). POC was calculated using the formula: % control (POC)=(cpd−average LO)/(average HI−average LO)*100. Data (consisting of POC and inhibitor concentration in μM) was fitted to a 4-parameter equation (y=A+((B−A)/(1+((x/C)^D))), where A is the minimum y (POC) value, B is the maximum y (POC), C is the x (cpd concentration) at the point of inflection and D is the slope factor) using a Levenburg-Marquardt non-linear regression algorithm.

HIF PHD2, sequence (Q9GZT9 whole entry): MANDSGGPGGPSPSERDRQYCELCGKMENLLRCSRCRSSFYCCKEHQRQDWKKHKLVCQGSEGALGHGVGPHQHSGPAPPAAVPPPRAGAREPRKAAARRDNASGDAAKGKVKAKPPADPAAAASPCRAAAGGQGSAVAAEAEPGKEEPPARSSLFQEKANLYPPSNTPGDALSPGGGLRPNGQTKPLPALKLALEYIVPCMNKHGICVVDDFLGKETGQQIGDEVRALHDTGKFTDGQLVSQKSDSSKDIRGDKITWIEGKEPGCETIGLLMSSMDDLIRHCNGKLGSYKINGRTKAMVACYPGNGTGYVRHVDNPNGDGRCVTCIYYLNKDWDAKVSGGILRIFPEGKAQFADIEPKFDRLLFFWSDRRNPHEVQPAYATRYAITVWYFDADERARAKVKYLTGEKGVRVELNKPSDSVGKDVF

Row | IC50 [nM] | Compound
1 | 5.3 | Cn1c(=O)c(C(=O)NCC(=O)O)c(O)c2cnc(-c3cccc4[nH]ccc34)nc21 [Example 56, 2-(5-hydroxy-2-(1H-indol-4-yl)-8-methyl-7-oxo-7,8-dihydropyrido[2,3-d]pyrimidine-6-carboxamido)acetic acid]
2 | 14 | Cn1c(-c2ncc3c(O)c(C(=O)NCC(=O)O)c(=O)n(C)c3n2)cc2ccccc21 [Example 57, 2-(5-hydroxy-8-methyl-2-(1-methyl-1H-indol-2-yl)-7-oxo-7,8-dihydropyrido[2,3-d]pyrimidine-6-carboxamido)acetic acid]
3 | 42 | Cc1ccc(S(=O)(=O)n2cc(-c3ncc4c(O)c(C(=O)NCC(=O)O)c(=O)n(C)c4n3)c3ccccc32)cc1 [Example 58, 2-(5-hydroxy-8-methyl-7-oxo-2-(1-tosyl-1H-indol-3-yl)-7,8-dihydropyrido[2,3-d]pyrimidine-6-carboxamido)acetic acid]

Source: US8097620B2, “Diazaquinolones that inhibit prolyl hydroxylase activity” (Amgen Inc., priority 2007, dated 2012)
